# According to patent US20250171420A1 (Monte Rosa Therapeutics, Inc., priority 2022, published 2025):
# Target: T1, CK1α (Homo sapiens, UniProt P48729)
# T1 construct: HEK293 clonal lines with CRISPR KI HiBiT tag on CSNK1A1
# Assay: CK1α NanoBit Assay (HiBiT-tagged CSNK1A1, HEK293 clonal lines)
# Format: cell-based
# Conditions: HEK293 HiBiT-CSNK1A1/LgBiT cells, 24 h incubation
# Experimental: HEK293 clonal lines with CRISPR KI HiBiT tag on CSNK1A1 and stably expressing LgBiT protein were obtained from Promega (Madison, WI). […] Cells were incubated at 37° C., 5% CO2 for 24 hours and then signal was read on a Pherastar FSX using “LUM plus” optic module.
# Data analysis was performed in Scinamic (Scinamic, Cambridge, MA). Luminescence response (R) was calculated by the formula: response=100*(S−N)/(P−N) where S is the signal of the well, N and P the mean negative and positive control values respectively of the same plate.
# DC50 data are reported in Table 2 for compounds in Table 1. In Table 2 below, According to the code, A represents a DC50 value of ≤0.1 μM, B represents a DC50 value>0.1 μM and ≤1 μM, C represents an DC50 value>1 μM.
# T1 sequence (P48729 whole entry): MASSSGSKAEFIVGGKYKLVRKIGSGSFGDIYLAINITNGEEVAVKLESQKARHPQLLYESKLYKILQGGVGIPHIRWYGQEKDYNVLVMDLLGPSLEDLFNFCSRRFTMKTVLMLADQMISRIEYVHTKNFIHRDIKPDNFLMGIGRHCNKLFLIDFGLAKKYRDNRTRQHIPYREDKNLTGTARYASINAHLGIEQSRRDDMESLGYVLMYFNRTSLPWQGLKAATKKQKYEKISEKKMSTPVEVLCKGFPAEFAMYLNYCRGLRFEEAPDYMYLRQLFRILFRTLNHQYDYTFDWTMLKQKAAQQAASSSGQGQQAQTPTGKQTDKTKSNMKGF
# T1 sequence (Q96SW2 whole entry, further chain): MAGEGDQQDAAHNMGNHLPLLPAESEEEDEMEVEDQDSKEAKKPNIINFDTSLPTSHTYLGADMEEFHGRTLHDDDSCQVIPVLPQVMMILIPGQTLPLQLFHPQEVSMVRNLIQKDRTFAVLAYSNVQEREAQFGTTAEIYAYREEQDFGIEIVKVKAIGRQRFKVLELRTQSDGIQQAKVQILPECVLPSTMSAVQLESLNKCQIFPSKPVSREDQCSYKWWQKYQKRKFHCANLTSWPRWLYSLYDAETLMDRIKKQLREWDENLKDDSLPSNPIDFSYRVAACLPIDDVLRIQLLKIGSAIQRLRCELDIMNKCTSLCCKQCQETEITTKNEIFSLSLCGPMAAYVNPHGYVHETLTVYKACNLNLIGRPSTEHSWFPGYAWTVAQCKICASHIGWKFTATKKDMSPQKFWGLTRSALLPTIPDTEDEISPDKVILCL
# T1 sequence (Q16531 2-1140 partner limits assumed): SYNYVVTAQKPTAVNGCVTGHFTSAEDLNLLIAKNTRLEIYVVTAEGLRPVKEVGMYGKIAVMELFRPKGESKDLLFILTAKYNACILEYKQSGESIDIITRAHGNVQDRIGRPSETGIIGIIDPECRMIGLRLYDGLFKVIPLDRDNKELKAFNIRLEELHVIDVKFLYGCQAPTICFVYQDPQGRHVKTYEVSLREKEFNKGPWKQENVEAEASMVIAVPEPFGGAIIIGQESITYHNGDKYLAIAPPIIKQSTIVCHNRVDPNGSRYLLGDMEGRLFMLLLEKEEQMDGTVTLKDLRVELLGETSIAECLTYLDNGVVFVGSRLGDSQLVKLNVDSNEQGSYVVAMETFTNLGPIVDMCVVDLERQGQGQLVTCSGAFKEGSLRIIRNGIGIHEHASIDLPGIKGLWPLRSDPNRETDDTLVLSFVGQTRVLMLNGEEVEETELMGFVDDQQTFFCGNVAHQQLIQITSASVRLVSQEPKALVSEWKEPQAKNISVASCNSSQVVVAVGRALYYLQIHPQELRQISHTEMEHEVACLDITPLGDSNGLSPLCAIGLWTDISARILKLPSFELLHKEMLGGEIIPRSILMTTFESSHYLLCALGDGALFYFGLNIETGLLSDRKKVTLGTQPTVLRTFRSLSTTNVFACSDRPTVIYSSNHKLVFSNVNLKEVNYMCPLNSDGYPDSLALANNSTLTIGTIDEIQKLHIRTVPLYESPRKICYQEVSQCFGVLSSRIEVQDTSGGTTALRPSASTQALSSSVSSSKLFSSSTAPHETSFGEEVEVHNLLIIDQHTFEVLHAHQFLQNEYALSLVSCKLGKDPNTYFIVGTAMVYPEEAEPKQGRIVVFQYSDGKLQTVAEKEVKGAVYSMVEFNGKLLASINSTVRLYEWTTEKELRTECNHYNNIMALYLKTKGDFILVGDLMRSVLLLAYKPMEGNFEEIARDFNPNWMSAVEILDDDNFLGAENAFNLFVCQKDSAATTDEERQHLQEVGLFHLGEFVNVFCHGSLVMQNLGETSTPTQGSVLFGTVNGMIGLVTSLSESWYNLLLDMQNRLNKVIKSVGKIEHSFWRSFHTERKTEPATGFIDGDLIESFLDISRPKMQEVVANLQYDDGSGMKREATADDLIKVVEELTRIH
row,SMILES,DC50 [µM]
1,O=C1CCC(N2Cc3cc(NC(=O)N4CCCc5ccc(C(F)(F)F)cc54)ccc3C2=O)C(=O)N1 (centres unmarked) [Compound 114],< 0.1
2,"O=C1CC[C@H](N2Cc3cc(NC(=O)N4c5ccccc5C[C@H]4C(F)(F)F)ccc3C2=O)C(=O)N1 (single isomer, unassigned) [Compound 361]",< 0.1
3,O=C1CCC(N2Cc3cc(NC(=O)N4CC(CC(F)F)(c5ccccc5)C4)ccc3C2=O)C(=O)N1 (centres unmarked) [Compound 237],0.1 to 1
4,N#Cc1ccc2c(c1)CN(C(=O)Nc1ccc3c(c1)CN(C1CCC(=O)NC1=O)C3=O)C2 (centres unmarked) [Compound 133],< 0.1
5,Cc1ccc2c(c1)CCCN2C(=O)Nc1ccc2c(c1)CN(C1CCC(=O)NC1=O)C2=O (centres unmarked) [Compound 140],< 0.1
6,CCC1c2ccccc2CN1C(=O)Nc1ccc2c(c1)CN(C1CCC(=O)NC1=O)C2=O (centres unmarked) [Compound 208],< 0.1
7,O=C1CCC(N2Cc3cc(NC(=O)N4CCCc5c4cccc5C(F)(F)F)ccc3C2=O)C(=O)N1 (centres unmarked) [Compound 160],0.1 to 1
8,O=C1CCC(N2Cc3cc(NC(=O)N4CCCc5cccc(Cl)c54)ccc3C2=O)C(=O)N1 (centres unmarked) [Compound 158],0.1 to 1
9,CC(C)(C)C1Cc2ccccc2N(C(=O)Nc2ccc3c(c2)CN(C2CCC(=O)NC2=O)C3=O)C1 (centres unmarked) [Compound 154],< 0.1
10,CC(C)(C)c1ccc2c(c1)CCN(C(=O)Nc1ccc3c(c1)CN(C1CCC(=O)NC1=O)C3=O)C2 (centres unmarked) [Compound 194],< 0.1
11,"O=C1CCC(N2Cc3cc(NC(=O)N4CCc5ncccc54)ccc3C2=O)C(=O)N1 (centres unmarked) [Compound 108, N-(2-(2,6-dioxopiperidin-3-yl)-1-oxoisoindolin-5-yl)-2,3-dihydro-1H-pyrrolo[3,2-b]pyridine-1-carboxamide]",0.1 to 1
12,O=C1CCC(N2Cc3cc(NC(=O)N4CCCc5cccnc54)ccc3C2=O)C(=O)N1 (centres unmarked) [Compound 146],0.1 to 1
13,O=C1CCC(N2Cc3cc(NC(=O)N4c5ccccc5C[C@@H]4CO)ccc3C2=O)C(=O)N1 (some centres unmarked) [Compound 125],< 0.1
14,O=C1CCC(N2Cc3cc(NC(=O)N4CCCc5ncccc54)ccc3C2=O)C(=O)N1 (centres unmarked) [Compound 145],> 1
15,CC(C)(C)c1ccc2c(c1)CN(C(=O)Nc1ccc3c(c1)CN(C1CCC(=O)NC1=O)C3=O)CC2 (centres unmarked) [Compound 179],< 0.1
16,"O=C1CCC(N2Cc3cc(NC(=O)N4c5cccc(C(F)(F)F)c5CC45COC5)ccc3C2=O)C(=O)N1 (centres unmarked) [Compound 296, N-(2-(2,6-dioxopiperidin-3-yl)-1-oxoisoindolin-5-yl)-4-(trifluoromethyl)spiro[indoline-2,3′-oxetane]-1-carboxamide]",< 0.1
17,O=C1CCC(N2Cc3cc(NC(=O)N4CCc5cccc(C(F)(F)F)c5C4)ccc3C2=O)C(=O)N1 (centres unmarked) [Compound 212],< 0.1
18,O=C1CCC(N2Cc3cc(NC(=O)N4C[C@H]5CC4[C@H](c4ccccc4)C5)ccc3C2=O)C(=O)N1 (some centres unmarked) [Compound 230],0.1 to 1
19,O=C1CCC(N2Cc3cc(NC(=O)N4C[C@H](c5ccccc5)[C@H]4CO)ccc3C2=O)C(=O)N1 (some centres unmarked) [Compound 245],0.1 to 1
20,Cc1cccc(C2(O)CN(C(=O)Nc3ccc4c(c3)CN(C3CCC(=O)NC3=O)C4=O)C2)c1 (centres unmarked) [Compound 225],> 1
21,CC1Cc2ccccc2C(C)N1C(=O)Nc1ccc2c(c1)CN(C1CCC(=O)NC1=O)C2=O (centres unmarked) [Compound 166],< 0.1
22,CC(C)C1c2ccccc2CCN1C(=O)Nc1ccc2c(c1)CN(C1CCC(=O)NC1=O)C2=O (centres unmarked) [Compound 181],< 0.1
23,CC1(c2ccccc2F)CN(C(=O)Nc2ccc3c(c2)CN(C2CCC(=O)NC2=O)C3=O)C1 (centres unmarked) [Compound 258],0.1 to 1
24,CC1(C)c2ccccc2CCN1C(=O)Nc1ccc2c(c1)CN(C1CCC(=O)NC1=O)C2=O (centres unmarked) [Compound 156],> 1
25,"O=C1CCC(N2Cc3cc(NC(=O)N4CCc5cnccc54)ccc3C2=O)C(=O)N1 (centres unmarked) [Compound 110, N-(2-(2,6-dioxopiperidin-3-yl)-1-oxoisoindolin-5-yl)-2,3-dihydro-1H-pyrrolo[3,2-c]pyridine-1-carboxamide]",0.1 to 1
26,CC(C)C1(c2ccccc2)CN(C(=O)Nc2ccc3c(c2)CN(C2CCC(=O)NC2=O)C3=O)C1 (centres unmarked) [Compound 233],0.1 to 1
27,O=C1CCC(N2Cc3cc(NC(=O)N4Cc5ccccc5CC4c4ccccc4)ccc3C2=O)C(=O)N1 (centres unmarked) [Compound 215],< 0.1

# More lines, now with the values ahead:
row,DC50 [µM],SMILES
1,0.1 to 1,O=C1CCC(N2Cc3cc(NC(=O)N4Cc5cccnc5C4)ccc3C2=O)C(=O)N1 (centres unmarked) [Compound 121]
2,< 0.1,COc1ccc2c(c1)CN(C(=O)Nc1ccc3c(c1)CN(C1CCC(=O)NC1=O)C3=O)C2 (centres unmarked) [Compound 199]
3,< 0.1,CC1Cc2ccccc2N1C(=O)Nc1ccc2c(c1)CN(C1CCC(=O)NC1=O)C2=O (centres unmarked) [Compound 138]
4,0.1 to 1,O=C1CCC(N2Cc3cc(NC(=O)N4CCN(c5ccccn5)CC4)ccc3C2=O)C(=O)N1 (centres unmarked) [Compound 271]
5,< 0.1,O=C1CCC(N2Cc3cc(NC(=O)N4CC(c5ccc(F)cc5)C4)ccc3C2=O)C(=O)N1 (centres unmarked) [Compound 269]
6,0.1 to 1,Cc1cccc2c1N(C(=O)Nc1ccc3c(c1)CN(C1CCC(=O)NC1=O)C3=O)CCC2 (centres unmarked) [Compound 139]
7,> 1,Cc1cc2c(cn1)CCN2C(=O)Nc1ccc2c(c1)CN(C1CCC(=O)NC1=O)C2=O (centres unmarked) [Compound 113]
8,< 0.1,O=C1CCC(N2Cc3cc(NC(=O)N4CCCC5(CCC5)C4)ccc3C2=O)C(=O)N1 (centres unmarked) [Compound 255]
9,< 0.1,O=C1CCC(N2Cc3cc(NC(=O)N4CC(c5cccc(Cl)c5)C4)ccc3C2=O)C(=O)N1 (centres unmarked) [Compound 268]
10,< 0.1,"O=C1CCC(N2Cc3cc(NC(=O)N4CCc5ccccc5C4)ccc3C2=O)C(=O)N1 (centres unmarked) [Compound 104, N-(2-(2,6-dioxopiperidin-3-yl)-1-oxoisoindolin-5-yl)-3,4-dihydroisoquinoline-2(1H)-carboxamide]"
11,> 1,O=C1CCC(N2Cc3cc(NC(=O)N4CCN(c5ccncn5)CC4)ccc3C2=O)C(=O)N1 (centres unmarked) [Compound 266]
12,> 1,Cc1ccnc(C2CCN(C(=O)Nc3ccc4c(c3)CN(C3CCC(=O)NC3=O)C4=O)CC2)n1 (centres unmarked) [Compound 246]
13,> 1,O=C1CCC(N2Cc3cc(NC(=O)N4CCc5ccncc5C4)ccc3C2=O)C(=O)N1 (centres unmarked) [Compound 151]
14,> 1,O=C1CCC(N2Cc3cc(NC(=O)N4CCN(C56CC(C5)C6)CC4)ccc3C2=O)C(=O)N1 (centres unmarked) [Compound 234]
15,0.1 to 1,CC1CCCN(C(=O)Nc2ccc3c(c2)CN(C2CCC(=O)NC2=O)C3=O)C1 (centres unmarked) [Compound 280]
16,> 1,O=C1CCC(N2Cc3cc(NC(=O)N4CCc5cnccc5C4)ccc3C2=O)C(=O)N1 (centres unmarked) [Compound 207]
17,< 0.1,C[C@H]1c2ccccc2CN1C(=O)Nc1ccc2c(c1)CN(C1CCC(=O)NC1=O)C2=O (some centres unmarked) [Compound 167]
18,0.1 to 1,Cc1ccc2c(c1)N(C(=O)Nc1ccc3c(c1)CN(C1CCC(=O)NC1=O)C3=O)CCC2 (centres unmarked) [Compound 149]
19,0.1 to 1,CC1CCCCN1C(=O)Nc1ccc2c(c1)CN(C1CCC(=O)NC1=O)C2=O (centres unmarked) [Compound 282]

row,DC50 [µM],SMILES
1,< 0.1,O=C1CCC(N2Cc3cc(NC(=O)N4CCCC(C5CCC5)C4)ccc3C2=O)C(=O)N1 (centres unmarked) [Compound 248]
2,> 1,O=C1CCC(N2Cc3cc(NC(=O)N4CCC(c5ncccn5)C4)ccc3C2=O)C(=O)N1 (centres unmarked) [Compound 229]
3,> 1,C[C@@H]1CCN(C(=O)Nc2ccc3c(c2)CN(C2CCC(=O)NC2=O)C3=O)[C@H](C)C1 (some centres unmarked) [Compound 275]
4,0.1 to 1,O=C1CCC(N2Cc3cc(NC(=O)N4CCCCC4C4CC4)ccc3C2=O)C(=O)N1 (centres unmarked) [Compound 232]
5,0.1 to 1,O=C1CCC(N2Cc3cc(NC(=O)N4CCc5cccnc5C4)ccc3C2=O)C(=O)N1 (centres unmarked) [Compound 195]
6,< 0.1,O=C1CCC(N2Cc3cc(NC(=O)N4CCc5ccc(F)cc5C4)ccc3C2=O)C(=O)N1 (centres unmarked) [Compound 180]
7,< 0.1,O=C1CCC(N2Cc3cc(NC(=O)N4C[C@@H]5[C@H]6CC[C@H](C6)[C@@H]5C4)ccc3C2=O)C(=O)N1 (some centres unmarked) [Compound 220]
8,< 0.1,COc1cccc2c1CN(C(=O)Nc1ccc3c(c1)CN(C1CCC(=O)NC1=O)C3=O)C2 (centres unmarked) [Compound 134]
9,0.1 to 1,CC1CCN(C(=O)Nc2ccc3c(c2)CN(C2CCC(=O)NC2=O)C3=O)CC1 (centres unmarked) [Compound 281]
10,0.1 to 1,O=C1CCC(N2Cc3cc(NC(=O)N4CC5[C@@H](CCN5c5ccccc5)C4)ccc3C2=O)C(=O)N1 (some centres unmarked) [Compound 236]
11,< 0.1,C[C@@H]1[C@H]2CN(C(=O)Nc3ccc4c(c3)CN(C3CCC(=O)NC3=O)C4=O)C[C@@H]12 (some centres unmarked) [Compound 273]
12,0.1 to 1,O=C1CCC(N2Cc3cc(NC(=O)N4Cc5ccncc5C4)ccc3C2=O)C(=O)N1 (centres unmarked) [Compound 144]
13,< 0.1,Cc1ccccc1N1CCN(C(=O)Nc2ccc3c(c2)CN(C2CCC(=O)NC2=O)C3=O)CC1 (centres unmarked) [Compound 261]
14,> 1,Cn1nccc1C1CCCN(C(=O)Nc2ccc3c(c2)CN(C2CCC(=O)NC2=O)C3=O)C1 (centres unmarked) [Compound 250]
15,0.1 to 1,O=C1CCC(N2Cc3cc(NC(=O)N4CC(c5cccc(F)c5)C4)ccc3C2=O)C(=O)N1 (centres unmarked) [Compound 238]
16,0.1 to 1,O=C1CCC(N2Cc3cc(NC(=O)N4CCCC4c4ccccn4)ccc3C2=O)C(=O)N1 (centres unmarked) [Compound 270]
17,< 0.1,O=C1CCC(N2Cc3cc(NC(=O)N4CCC(C5CC5)C4)ccc3C2=O)C(=O)N1 (centres unmarked) [Compound 277]
18,< 0.1,Cc1ccc(C2CN(C(=O)Nc3ccc4c(c3)CN(C3CCC(=O)NC3=O)C4=O)C2)cc1 (centres unmarked) [Compound 228]
19,0.1 to 1,O=C1CCC(N2Cc3cc(NC(=O)N4CCC5CC54)ccc3C2=O)C(=O)N1 (centres unmarked) [Compound 221]
